Assays:
[1] = system: cancer; conditions: in vivo; cited from earlier work
[2] = system: tumors; experiment: Intraoperative NIR imaging for fluorescence guided surgery (FGS) in tumor-bearing mice; type: in vivo
Experimental: FIG. 5 depicts intraoperative imaging of OCTL14 for fluorescence guided surgery (FGS). (a) FGS using the squaraine. Tumor-bearing mice were intravenously injected with 100 nmol of OCTL14. FGS was performed 6 h post-injection. The yellow circle indicates the lesions for which intraoperative image-guided surgeries were performed. The middle panels show the tumor locations before/after surgery and resected tumors of different sizes. Scale bars=1 cm. (b) Clinical impact of the use of OCTL14. The number of tumors detected using color images only was compared to those detected using NIR imaging by experienced surgeons.
Structure-inherent targeting: Squaraines are selectively taken up by cancer cells via organic cation transporters (OCTs), overexpressed by cancer cells (FIG. 4). This high affinity is mediated by the unique structure of the molecule. This was achieved this by introducing an asymmetric molecular conformation and surface charges. In this way, squaraines can be up-taken rapidly via transporter and selectively accumulate in cancer cells, not normal cells. In addition, we have shown that once they are taken up by cancer cells, squaraines can stay in lysosomes for hours for durable imaging. This feature is critical to have a clear contrast between cancerous and normal tissue for clear cancer imaging during surgery or medical procedures.

Compound | blood half-life [1] | cancer targeting capability [1] | localization of cancer tissues ([2]; 6 h post-injection, 100 nmol intravenously, tumor-bearing mice) | resection of tumors under image guidance ([2]; FGS 6 h post-injection) | residual tumor after FGS ([2]; FGS 6 h post-injection)
CC1(C)C(/C=C/C=C/C=C/C=C2\N(CCCCS(=O)(=O)O)c3ccc4ccccc4c3C2(C)C)=[N+](CCCCS(=O)(=O)[O-])c2ccc3ccccc3c21 [ICG, indocyanine green] | short blood half-life | no specific cancer targeting capability | – | – | –
Br.C[N+]1=C(/C=C2\C(=O)C(/C=C3/N(CCC[N+](C)(C)C)c4ccc(F)cc4C3(C)C)=C2[O-])C(C)(C)c2ccccc21.[I-] [OCTL14, Mono ((Z)-2-((E)-(5-fluoro-3,3-dimethyl-1-(3-(trimethylammonio)propyl)indolin-2-ylidene)methyl)-3-oxo-4-((1,3,3-trimethyl-3H-indol-1-ium-2-yl)methylene)cyclobut-1-enolate) mono bromide monoiodide] | – | – | precise localization of cancer tissues | complete resection of tumors | no residual tumor
